Measurements: US20080108665A1, “Use of N-substituted sulfoximines for control of invertebrate pests” (priority 2006, published 2008)

System: Eastern Subterranean Termite (Reticulitermes flavipes)
Test: Eastern subterranean termite filter paper assay
Assay type: in vivo
Experimental: Activity of Compound (2) was evaluated for its activity on Eastern subterranean termite. Technical material of the test compound was formulated in acetone on a wt/wt basis to deliver 1000, 500, 200, 50, 12.5, 3.12 and 0.78 ppm to 42.5 mm Whatman No. 1 filter papers per 200 ul of pipetted solution. Each test concentration was applied to six filter papers (6 reps). Six acetone-only control units and six DI water-only control units were also prepared. The filter papers were dried overnight in the fume hood before they were placed into 60×15 mm Fisher Brand plastic Petri dishes. A volume of 200 ul DI water was pipetted onto each Filter paper at the time of test set-up, just prior to infesting with termites. Ten worker termites were added to each Petri dish and covered. The infested Petri dishes were put in the laboratory Conviron at 28° C. and 60% RH. Termite mortality was recorded at 1, 2, 4, 7, and 10 days after infestation (DAI). Throughout the duration of the test, an average of 150 ul of DI water was added daily to the filter papers to retain moisture.

CC(c1ccc(Cl)nc1)S(C)(=O)=NC#N (centres unmarked) [Compound 2, [1-(6-chloropyridin-3-yl)ethyl](methyl)oxido-λ^4-sulfanylidenecyanamide]
mortality at 0.78 ppm (1 DAI): 0%
mortality at 0.78 ppm (2 DAI): 2%
mortality at 0.78 ppm (4 DAI): 2%
mortality at 0.78 ppm (7 DAI): 7%
mortality at 0.78 ppm (10 DAI): 10%
mortality at 3.13 ppm (1 DAI): 0%
mortality at 3.13 ppm (2 DAI): 3%
mortality at 3.13 ppm (4 DAI): 43%
mortality at 3.13 ppm (7 DAI): 60%
mortality at 3.13 ppm (10 DAI): 60%
mortality at 12.5 ppm (1 DAI): 15%
mortality at 12.5 ppm (2 DAI): 32%
mortality at 12.5 ppm (4 DAI): 60%
mortality at 12.5 ppm (7 DAI): 63%
mortality at 12.5 ppm (10 DAI): 63%
mortality at 50 ppm (1 DAI): 15%
mortality at 50 ppm (2 DAI): 27%
mortality at 50 ppm (4 DAI): 67%
mortality at 50 ppm (7 DAI): 92%
mortality at 50 ppm (10 DAI): 93%
mortality at 200 ppm (1 DAI): 37%
mortality at 200 ppm (2 DAI): 58%
mortality at 200 ppm (4 DAI): 87%
mortality at 200 ppm (7 DAI): 97%
mortality at 200 ppm (10 DAI): 100%
mortality at 500 ppm (1 DAI): 38%
mortality at 500 ppm (2 DAI): 60%
mortality at 500 ppm (4 DAI): 93%
mortality at 500 ppm (7 DAI): 100%
mortality at 500 ppm (10 DAI): 100%
mortality at 1000 ppm (1 DAI): 47%
mortality at 1000 ppm (2 DAI): 68%
mortality at 1000 ppm (4 DAI): 92%
mortality at 1000 ppm (7 DAI): 100%
mortality at 1000 ppm (10 DAI): 100%
